Results: ChEMBL document CHEMBL1201862, “PubChem BioAssay data set” (2004)
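Tested at 5 concentrations; 48 h exposure; 96-well plates; endpoints linearly interpolated, else capped at highest concentration. GI50 marks 50% less growth.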 Activity calls are given as the source filed them. Rule as the data show it: active = GI50 up to about 1.1 µM and inactive = higher.

Tests used:
Test in all cases: NCI anticancer screen, dose series, 48 h
LXFL 529 = system: LXFL 529
HOP-18 = system: HOP-18
KM-20L2 = system: KM-20L2
DMS-114 = system: DMS-114
RXF 631 = system: RXF 631
M19-MEL = system: M19-MEL
SNB-78 = system: SNB-78
DLD-1 = system: DLD-1
DMS-273 = system: DMS-273

Measured: GI50

Nc1nc(N)c2nc(-c3ccco3)cnc2n1
inactive: LXFL 529 64.1 µM | HOP-18 27.6 µM | KM-20L2 69.2 µM | DMS-114 38.8 µM | RXF 631 36 µM | M19-MEL > 100 µM | SNB-78 > 100 µM | DLD-1 > 100 µM

O=C(O)[C@@H](NS(=O)(=O)c1ccc(F)cc1)c1ccccc1
inactive: LXFL 529 > 100 µM | HOP-18 > 100 µM | DMS-273 > 100 µM | KM-20L2 > 100 µM | DMS-114 > 100 µM | M19-MEL > 100 µM | SNB-78 > 100 µM | DLD-1 > 100 µM

COC(=O)[C@H]1N[C@@H](C(=O)OC)C23CCC[C@H]2CC[C@]1(C(OC)OC)C3
inactive: LXFL 529 > 100 µM | HOP-18 > 100 µM | DMS-273 > 100 µM | KM-20L2 > 100 µM | DMS-114 > 100 µM | M19-MEL > 100 µM | SNB-78 > 100 µM | DLD-1 > 100 µM

Nc1nc(SCc2ccccc2Cl)c2[nH]cnc2n1
inactive: LXFL 529 62.1 µM | DMS-273 41 µM | KM-20L2 > 100 µM | DMS-114 40.8 µM | M19-MEL > 100 µM | SNB-78 > 100 µM | DLD-1 69 µM

CCOC(=O)C(=O)NCCCN1CCOCC1
inactive: LXFL 529 > 100 µM | HOP-18 > 100 µM | DMS-273 > 100 µM | KM-20L2 > 100 µM | DMS-114 > 100 µM | RXF 631 > 100 µM | M19-MEL > 100 µM | SNB-78 > 100 µM | DLD-1 > 100 µM

Nc1nc(=O)[nH]c2c1cnn2C1CCCCO1 (stereo not drawn)
inactive: LXFL 529 > 100 µM | HOP-18 > 100 µM | DMS-273 > 100 µM | KM-20L2 > 100 µM | RXF 631 > 100 µM | SNB-78 > 100 µM | DLD-1 62.7 µM

C=C=CC(NC(=O)c1ccccc1)(C(=O)O)C(F)(F)F (stereo not drawn)
inactive: LXFL 529 > 100 µM | HOP-18 > 100 µM | DMS-273 > 100 µM | DMS-114 > 100 µM | RXF 631 > 100 µM | SNB-78 > 100 µM | DLD-1 > 100 µM

Nc1ncnc2c1ncn2C1CCC(CO)O1 (stereo not drawn)
inactive: HOP-18 > 100 µM | DMS-273 > 100 µM | KM-20L2 > 100 µM | DMS-114 > 55.6 µM | M19-MEL > 100 µM | SNB-78 > 100 µM | DLD-1 > 100 µM

COc1ccc(/C=C/c2cc(OC)c(OCc3ccccc3)c(OC)c2)cc1
inactive: LXFL 529 > 100 µM | DMS-273 71.6 µM | KM-20L2 > 100 µM | DMS-114 68.4 µM | RXF 631 48.3 µM | M19-MEL > 100 µM | SNB-78 > 100 µM | DLD-1 45.6 µM

C#CCC1(C(=O)OCC)C(=O)c2ccccc2N(C)C1=O (stereo not drawn)
inactive: LXFL 529 > 100 µM | HOP-18 > 100 µM | DMS-273 > 100 µM | KM-20L2 > 100 µM | DMS-114 > 100 µM | RXF 631 > 100 µM | M19-MEL > 100 µM | SNB-78 > 100 µM | DLD-1 > 100 µM
